Source: ChEMBL document CHEMBL5608163, “Structure modification of anoplin for fighting resistant bacteria” (Eur J Med Chem, 2024)
In brackets after ≈: the same amount, converted by molar mass. Peptide text beside a SMILES is read from it.

Legend:
[1] = Hemolytic activity against Red blood cells (unknown origin) incubated for 1 hr by spectrophotometric analysis; assay type: toxicity, cell-based, Erythrocyte
Bacillus subtilis [2] = assay: Antimicrobial activity against Bacillus subtilis assessed as reduction in microbial growth measured after 18 to 20 hrs by Mueller-Hinton broth based two-fold serial dilution method; assay type: functional; settings: time 18-20 hrs
Escherichia coli [3] = assay: Antibacterial activity against wild type Escherichia coli MG1655 assessed as reduction in bacterial growth incubated for 18 to 24 hrs by broth micro-dilution method; assay type: functional; settings: time 18-24 hrs
Staphylococcus aureus [4] = assay: Antibacterial activity against Staphylococcus aureus ATCC 25923 assessed as reduction in bacterial growth measured after 24 hrs by Mueller-Hinton broth based two-fold serial dilution method; assay type: functional
Escherichia coli [5] = assay: Antibacterial activity against Escherichia coli ATCC 25922 assessed as reduction in bacterial growth measured after 24 hrs by Mueller-Hinton broth based two-fold serial dilution method; assay type: functional
Staphylococcus aureus [6] = assay: Antibacterial activity against Staphylococcus aureus ATCC 29213 assessed as bacterial growth inhibition measured for 18 hrs by CLSI-protocol based Mueller-Hinton Broth micro-dilution assay; assay type: functional
Staphylococcus aureus [7] = assay: Antibacterial activity against methicillin-resistant Staphylococcus aureus ATCC BAA1720 assessed as bacterial growth inhibition measured for 18 hrs by CLSI-protocol based Mueller-Hinton Broth micro-dilution assay; assay type: functional
Bacillus subtilis [8] = assay: Antibacterial activity against Bacillus subtilis 168 assessed as bacterial growth inhibition measured for 18 hrs by CLSI-protocol based Mueller-Hinton Broth micro-dilution assay; assay type: functional
Escherichia coli [9] = assay: Antibacterial activity against Escherichia coli K12 assessed as bacterial growth inhibition measured for 18 hrs by CLSI-protocol based Mueller-Hinton Broth micro-dilution assay; assay type: functional
Escherichia coli [10] = assay: Antibacterial activity against Escherichia coli MG1655 assessed as bacterial growth inhibition measured for 18 hrs by CLSI-protocol based Mueller-Hinton Broth micro-dilution assay; assay type: functional
Pseudomonas aeruginosa [11] = assay: Antibacterial activity against Pseudomonas aeruginosa PAO1 assessed as bacterial growth inhibition measured for 18 hrs by CLSI-protocol based Mueller-Hinton Broth micro-dilution assay; assay type: functional
Pseudomonas aeruginosa [12] = assay: Antibacterial activity against Pseudomonas aeruginosa ATCC 27853 assessed as bacterial growth inhibition measured for 18 hrs by CLSI-protocol based Mueller-Hinton Broth micro-dilution assay; assay type: functional
Salmonella typhimurium = assay: Antibacterial activity against Salmonella enterica subsp. enterica serovar Typhimurium LT2 assessed as bacterial growth inhibition measured for 18 hrs by CLSI-protocol based Mueller-Hinton Broth micro-dilution assay; assay type: functional
Erythrocyte = assay: Hemolytic activity in sheep RBC incubated for 30 mins; assay type: toxicity, cell-based, Ovis aries; settings: 0.5 h
Staphylococcus aureus [13] = assay: Antibacterial activity against Staphylococcus aureus assessed as bacterial growth inhibition incubated for 20 hrs by broth microdilution assay; assay type: functional
Bacillus subtilis [14] = assay: Antibacterial activity against Bacillus subtilis assessed as reduction in bacterial growth incubated for 20 hrs by broth microdilution assay; assay type: functional
Escherichia coli [15] = assay: Antibacterial activity against Escherichia coli assessed as reduction in bacterial growth incubated for 20 hrs by broth microdilution assay; assay type: functional
Pseudomonas aeruginosa [16] = assay: Antibacterial activity against Pseudomonas aeruginosa assessed as reduction in bacterial growth incubated for 20 hrs by broth microdilution assay; assay type: functional
Staphylococcus aureus [17] = assay: Antibacterial activity against Staphylococcus aureus; assay type: functional
Escherichia coli [18] = assay: Antibacterial activity against Escherichia coli; assay type: functional
Enterococcus faecium [19] = assay: Antibacterial activity against Enterococcus faecium; assay type: functional
Pseudomonas aeruginosa [20] = assay: Antibacterial activity against Pseudomonas aeruginosa; assay type: functional
[21] = Hemolytic activity in human red blood cells; assay type: toxicity, cell-based, Erythrocyte; settings: red blood cells
[22] = Hemolytic activity in human RBC assessed as hemolysis measured after 24 hrs; assay type: toxicity, cell-based, Erythrocyte; settings: red blood cells
Pseudomonas aeruginosa [23] = assay: Antibacterial activity against Pseudomonas aeruginosa ATCC 27853 assessed as reduction in microbial growth incubated for 16 to 20 hrs by CLSI protocol based Muller Hinton broth assay; assay type: functional; settings: time 16-20 hrs
Staphylococcus aureus [24] = assay: Antibacterial activity against methicillin-resistant Staphylococcus aureus ATCC 33591 assessed as reduction in bacterial growth incubated for 18 hrs by agar dilution method; assay type: functional
Enterococcus faecium [25] = assay: Antibacterial activity against vancomycin resistant Enterococcus faecium ATCC 700221 assessed as inhibition of bacterial growth incubated for 48 hrs by CLSI-based broth microdilution assay; assay type: functional
Bacillus subtilis [26] = assay: Antibacterial activity against Bacillus subtilis assessed as reduction in bacterial growth incubated for 24 hrs by broth microdilution assay; assay type: functional
[27] = test system: Mycolicibacterium smegmatis; assay: Antimycobacterial activity against Mycobacterium smegmatis mc2 155 assessed as reduction in bacterial cell growth by resazurin reduction method; assay type: functional
Escherichia coli [28] = assay: Antibacterial activity against Escherichia coli ATCC 25922 assessed as reduction in microbial growth incubated for 16 to 20 hrs by CLSI protocol based Muller Hinton broth assay; assay type: functional; settings: time 16-20 hrs
Escherichia coli [29] = assay: Antibacterial activity against Escherichia coli DH5alpha assessed as bacterial growth inhibition; assay type: functional
Bacillus subtilis [30] = assay: Antibacterial activity against Bacillus subtilis ATCC 23857 assessed as reduction in bacterial cell growth incubated for 24 hrs by broth micro-dilution analysis; assay type: functional

CC.CC[C@H](C)[C@H](NC(=O)[C@H](CCCNC(=N)N)NC(=O)[C@H](CCCCN)NC(=O)[C@H](CC(C)C)NC(=O)[C@H](CC(C)C)NC(=O)CN)C(=O)N[C@@H](CCCCN)C(=O)N[C@H](C(=O)N[C@@H](CC(C)C)C(=O)N[C@@H](CC(C)C)C(N)=O)[C@@H](C)O
HC50 at 1 h [1]: > 400 µM
MIC (Bacillus subtilis [2]): 16 µM
MIC (Escherichia coli [3]): 32 µM
MIC (Staphylococcus aureus [4]): 11.3 µM
MIC (Escherichia coli [5]): > 22.6 µM
MIC (Staphylococcus aureus [6]): ≥ 64 µM
MIC (Staphylococcus aureus [7]): ≥ 64 µM
MIC (Bacillus subtilis [8]): 16 µM
MIC (Escherichia coli [9]): 32 µM
MIC (Escherichia coli [10]): 32 µM
MIC (Pseudomonas aeruginosa [11]): 16 µM
MIC (Pseudomonas aeruginosa [12]): 32 µM
MIC (Salmonella typhimurium): 64 µM
HC10 (Erythrocyte): > 64 µM
MIC (Staphylococcus aureus [13]): 64 µM
MIC (Bacillus subtilis [14]): 32 µM
MIC (Escherichia coli [15]): 64 µM
MIC (Pseudomonas aeruginosa [16]): 32 µM

CC[C@H](C)[C@H](NC(=O)[C@H](CCCCN)NC(=O)[C@H](CCCCN)NC(=O)[C@H](CC(C)C)NC(=O)[C@H](CC(C)C)NC(=O)CN)C(=O)N[C@@H](CCCCN)C(=O)N[C@@H](CCCCN)C(=O)N[C@@H](CC(C)C)C(=O)N[C@@H](CC(C)C)C(N)=O
MIC (Staphylococcus aureus [17]): 256 µM (≈ 295 µg/mL)
MIC (Escherichia coli [18]): 25 µM (≈ 28.8 µg/mL)
MIC (Enterococcus faecium [19]): 56.9 µM (≈ 65.6 µg/mL)
MIC (Pseudomonas aeruginosa [20]): 28.4 µM (≈ 32.7 µg/mL)
HC50 [21]: < 500 µM
HC50 at 24 h [22]: > 500 µM

CC[C@H](C)[C@H](NC(=O)[C@H](Cc1ccccc1)NC(=O)[C@H](CCCCN)NC(=O)[C@H](CC(C)C)NC(=O)[C@H](CC(C)C)NC(=O)CN)C(=O)N[C@@H](CCCCN)C(=O)N[C@@H](CCCCN)C(=O)N[C@@H](CC(C)C)C(=O)N[C@@H](CC(C)C)C(N)=O (H-GLLKFIKKLL-NH2)
MIC (Pseudomonas aeruginosa [23]): 28.4 µM
MIC (Staphylococcus aureus [24]): 9.5 µM (≈ 11.1 µg/mL)
MIC (Enterococcus faecium [25]): 9.5 µM (≈ 11.1 µg/mL)
MIC (Bacillus subtilis [26]): 25.6 µM (≈ 30 µg/mL)
MIC [27]: 12.8 µM (≈ 15 µg/mL)
MIC (Escherichia coli [28]): 9.5 µM
HC50 at 24 h [22]: 13.6 µM

CC[C@H](C)[C@H](NC(=O)[C@H](CCCNC(=N)N)NC(=O)[C@H](CCCCN)NC(=O)[C@H](CC(C)C)NC(=O)[C@H](CC(C)C)NC(=O)CN)C(=O)N[C@@H](CCCCN)C(=O)N[C@H](C(=O)N[C@@H](CC(C)C)C(=O)N[C@@H](CC(C)C)C(N)=O)[C@@H](C)O [ANOPLIN]
MIC (Escherichia coli [29]): 86.7 µM (≈ 100 µg/mL)
MIC (Bacillus subtilis [30]): 43.4 µM (≈ 50.1 µg/mL)
